Assays:
LSR receptors = assay type: cell-based, rat; conditions: after leptin; 5 μM cycloheximide or 2.5 μM cytochalasin B, 30 min 37° C.
Experimental: Primary cultures of rat hepatocytes are incubated for 30 min at 37° C. in the presence or in the absence of 20 ng/ml of leptin, for 10 min at 37° C. in the presence of 0.8 mM oleate. The cells are washed with PBS buffer precooled to 4° C., and then incubated for 2 hours at 4° C. in the presence of increasing concentrations of ^125I-LDL. The cells are then washed, lysed and the quantity of bound ^125I-LDL is measured.
The initial conditions are identical to those described above; after incubation with leptin, the cells are incubated for 30 min at 37° C. with 5 μM cycloheximide, 5 μM colchicine or 2.5 μM cytochalasin B. The cells are then incubated for 10 min at 37° C. in the presence of 0.8 mM oleate. The cells are then washed with PBS buffer precooled to 4° C., and then incubated for 2 hours at 4° C. in the presence of 50 μg/ml of ^125I-LDL. 2 measurements are carried out, and the mean results are presented.

LSR = target: T1, LSR (Rattus norvegicus, UniProt Q9WU74); assay: Effect of C1q on binding, internalization and degradation of LDLs by hepatocytes in primary culture; assay type: cell-based
T1 sequence (Q9WU74 36-593): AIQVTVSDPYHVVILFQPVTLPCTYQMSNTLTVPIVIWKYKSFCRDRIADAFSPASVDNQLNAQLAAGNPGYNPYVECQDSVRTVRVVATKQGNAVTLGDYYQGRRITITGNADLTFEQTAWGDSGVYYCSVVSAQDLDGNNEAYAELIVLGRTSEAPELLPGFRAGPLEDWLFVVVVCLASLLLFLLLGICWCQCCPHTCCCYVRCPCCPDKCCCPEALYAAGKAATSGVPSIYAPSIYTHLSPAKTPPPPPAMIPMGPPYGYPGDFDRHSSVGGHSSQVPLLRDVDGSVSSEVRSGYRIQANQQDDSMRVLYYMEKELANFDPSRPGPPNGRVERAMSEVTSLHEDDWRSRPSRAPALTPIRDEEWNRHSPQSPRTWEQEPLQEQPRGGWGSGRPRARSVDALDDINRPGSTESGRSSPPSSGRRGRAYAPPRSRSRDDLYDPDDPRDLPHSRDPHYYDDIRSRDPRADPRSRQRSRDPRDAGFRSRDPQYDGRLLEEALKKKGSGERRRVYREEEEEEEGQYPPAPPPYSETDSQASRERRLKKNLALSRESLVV
T1 sequence (Q9WU74 36-525 isoform Q9WU74-3 limits assumed): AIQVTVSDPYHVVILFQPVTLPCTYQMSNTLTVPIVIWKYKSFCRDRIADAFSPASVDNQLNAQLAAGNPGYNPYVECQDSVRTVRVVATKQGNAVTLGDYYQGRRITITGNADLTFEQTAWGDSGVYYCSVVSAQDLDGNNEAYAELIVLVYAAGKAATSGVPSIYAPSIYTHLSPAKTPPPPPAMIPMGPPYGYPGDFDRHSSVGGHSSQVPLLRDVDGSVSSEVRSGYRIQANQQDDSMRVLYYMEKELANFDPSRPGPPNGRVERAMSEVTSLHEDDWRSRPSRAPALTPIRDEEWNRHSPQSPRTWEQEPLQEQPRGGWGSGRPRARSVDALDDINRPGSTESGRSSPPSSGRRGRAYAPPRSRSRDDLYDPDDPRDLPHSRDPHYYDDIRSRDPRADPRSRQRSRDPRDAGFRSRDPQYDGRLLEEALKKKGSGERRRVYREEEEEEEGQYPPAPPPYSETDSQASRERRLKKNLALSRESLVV
Experimental: The LSR activity in the primary cultures of rat hepatocytes is measured by the binding, internalization and degradation of ^125I-LDL and ^125I-VLDL (LDL: low-density lipoprotein; VLDL: very low-density lipoprotein), as described in Bihain and Yen, 1992 and Mann et al., 1995.
It has been shown that gC1q-R could bind the globular head of […]. We sought to use this property of C1q to displace gC1q-R combined with LSR, and we measured the effect of increasing doses of C1q on the binding, internalization and degradation of the LDLs by hepatocytes in primary culture.

| capture and degradation of LDLs (LSR; human C1q, in the absence of oleate) | Molecule | induction by leptin of the LSR activity (increase in apparent number of receptors) (LSR receptors) | capture and degradation of LDLs (LSR; C1q, in the presence of oleate) |
| --- | --- | --- | --- |
|  | C[C@@H]1C[C@@H]([C@H](O)CC2CC(=O)NC(=O)C2)C(=O)[C@@H](C)C1 [cycloheximide] | partially inhibited |  |
| increase | C1q: human complement factor C1q, binds gC1q-R |  | less substantial, but nevertheless significant, increase |
|  | C=C1[C@@H](C)[C@H]2[C@H](Cc3ccccc3)NC(=O)[C@]23OC(=O)/C=C/[C@H](O)CCC[C@@H](C)C/C=C/[C@H]3[C@@H]1O [cytochalasin B] | inhibited |  |

Reference: patent publication US7919091B2, “Lipolysis stimulated receptor (LSR) specific antibodies” (Serono Genetics Institute S.A., priority 1997, dated 2011)
